Species on record: Rattus norvegicus
Experiment: DrugMatrix - Regimen: Daily Repeat
Assay type: toxicity, organism-based, Sprague-Dawley
Design: regimen Daily Repeat, gender Male, age 6-8 weeks
Conditions: in vivo, po, route oral GAVAGE, vehicle .5 % CMC; for ABSOLUTE BASOPHIL / ABSOLUTE EOSINOPHIL / ABSOLUTE LYMPHOCYTE / ABSOLUTE MONOCYTE / ABSOLUTE SEGMENTED NEUTROPHIL / BASOPHIL / EOSINOPHIL / ERYTHROCYTE COUNT / HEMATOCRIT / HEMOGLOBIN / LEUKOCYTE COUNT / LYMPHOCYTE / MEAN CORPUSCULAR HEMOGLOBIN / MEAN CORPUSCULAR HEMOGLOBIN CONCENTRATION / MEAN CORPUSCULAR VOLUME / MONOCYTE / NEUTROPHIL / NUCLEATED RED BLOOD CELLS / PLATELET COUNT: tissue Blood; for ALANINE AMINOTRANSFERASE / ALBUMIN / ALKALINE PHOSPHATASE / ASPARTATE AMINOTRANSFERASE / BLOOD UREA NITROGEN / CARBON DIOXIDE / CHLORIDE / CHOLESTEROL / CREATINE PHOSPHOKINASE / CREATININE / GLUCOSE / LACTATE DEHYDROGENASE / LIPASE / PHOSPHORUS / POTASSIUM / SODIUM / TOTAL BILIRUBIN / TOTAL PROTEIN: tissue Plasma
[1] = 0 mg/kg, 72 h, dose level Control, time 3 day
[2] = 0 mg/kg, 120 h, dose level Control, time 5 day
[3] = 25 mg/kg, 72 h, dose level Low, time 3 day

## COc1cc(/C=C/C(=O)O)ccc1O [FERULATE]
[1]
  ABSOLUTE BASOPHIL: 0 CELLS/uL
  ABSOLUTE EOSINOPHIL: 284.5 CELLS/uL
  ABSOLUTE LYMPHOCYTE: 11670.5 CELLS/uL
  ABSOLUTE MONOCYTE: 420.83 CELLS/uL
  ABSOLUTE SEGMENTED NEUTROPHIL: 1024.17 CELLS/uL
  BASOPHIL: 0%
  EOSINOPHIL: 1.67%
  ERYTHROCYTE COUNT: 5.38 x10E6/uL
  HEMATOCRIT: 34.05%
  HEMOGLOBIN: 12.75 G/DL
  LEUKOCYTE COUNT: 13.4 x10E3/uL
  LYMPHOCYTE: 88.33%
  MEAN CORPUSCULAR HEMOGLOBIN: 23.73 pg
  MEAN CORPUSCULAR HEMOGLOBIN CONCENTRATION: 37.43 G/DL
  MEAN CORPUSCULAR VOLUME: 63.4 fL
  MONOCYTE: 2.83%
  NEUTROPHIL: 7.17%
  NUCLEATED RED BLOOD CELLS: 0 /100WBC
  PLATELET COUNT: 1184.67 x10E3/uL
  ALANINE AMINOTRANSFERASE: 45.33 u/L
  ALBUMIN: 4.3 G/DL
  ALKALINE PHOSPHATASE: 388.83 u/L
  ASPARTATE AMINOTRANSFERASE: 84.83 u/L
  BLOOD UREA NITROGEN: 15.5 mg/dL
  CARBON DIOXIDE: 27 mmol/L
  CHLORIDE: 101.8 MEQ/L
  CHOLESTEROL: 76.67 mg/dL
  CREATINE PHOSPHOKINASE: 301 u/L
  CREATININE: 0.21 mg/dL
  GLUCOSE: 168.83 mg/dL
  LACTATE DEHYDROGENASE: 294.83 u/L
  LIPASE: 9.8 u/L
  PHOSPHORUS: 13.25 mg/dL
  POTASSIUM: 6.41 MEQ/L
  SODIUM: 143.72 MEQ/L
  TOTAL BILIRUBIN: 0.22 mg/dL
  TOTAL PROTEIN: 5.98 G/DL
[2]
  ABSOLUTE BASOPHIL: 0 CELLS/uL
  ABSOLUTE EOSINOPHIL: 190.67 CELLS/uL
  ABSOLUTE LYMPHOCYTE: 12549.5 CELLS/uL
  ABSOLUTE MONOCYTE: 276 CELLS/uL
  ABSOLUTE SEGMENTED NEUTROPHIL: 1067.17 CELLS/uL
  BASOPHIL: 0%
  EOSINOPHIL: 1.33%
  ERYTHROCYTE COUNT: 5.66 x10E6/uL
  HEMATOCRIT: 35.92%
  HEMOGLOBIN: 13.65 G/DL
  LEUKOCYTE COUNT: 14.08 x10E3/uL
  LYMPHOCYTE: 89%
  MEAN CORPUSCULAR HEMOGLOBIN: 24.12 pg
  MEAN CORPUSCULAR HEMOGLOBIN CONCENTRATION: 38.03 G/DL
  MEAN CORPUSCULAR VOLUME: 63.47 fL
  MONOCYTE: 2%
  NEUTROPHIL: 7.67%
  NUCLEATED RED BLOOD CELLS: 0.17 /100WBC
  PLATELET COUNT: 1251.67 x10E3/uL
  ALANINE AMINOTRANSFERASE: 43.33 u/L
  ALBUMIN: 4.22 G/DL
  ALKALINE PHOSPHATASE: 365.67 u/L
  ASPARTATE AMINOTRANSFERASE: 83.67 u/L
  BLOOD UREA NITROGEN: 18.17 mg/dL
  CARBON DIOXIDE: 28.67 mmol/L
  CHLORIDE: 103.5 MEQ/L
  CHOLESTEROL: 71.5 mg/dL
  CREATINE PHOSPHOKINASE: 284.5 u/L
  CREATININE: 0.21 mg/dL
  GLUCOSE: 161.67 mg/dL
  LACTATE DEHYDROGENASE: 259.67 u/L
  LIPASE: 9.5 u/L
  PHOSPHORUS: 12.45 mg/dL
  POTASSIUM: 6.49 MEQ/L
  SODIUM: 144.25 MEQ/L
  TOTAL BILIRUBIN: 0.2 mg/dL
  TOTAL PROTEIN: 6.1 G/DL
[3]
  ABSOLUTE BASOPHIL: 0 CELLS/uL
  ABSOLUTE EOSINOPHIL: 47 CELLS/uL
  ABSOLUTE LYMPHOCYTE: 6476.33 CELLS/uL
  ABSOLUTE MONOCYTE: 108 CELLS/uL
  ABSOLUTE SEGMENTED NEUTROPHIL: 402 CELLS/uL
  BASOPHIL: 0%
  EOSINOPHIL: 1%
  ERYTHROCYTE COUNT: 5.55 x10E6/uL
  HEMATOCRIT: 35.4%
  HEMOGLOBIN: 13.17 G/DL
  LEUKOCYTE COUNT: 7.03 x10E3/uL
  LYMPHOCYTE: 91.67%
  MEAN CORPUSCULAR HEMOGLOBIN: 23.73 pg
  MEAN CORPUSCULAR HEMOGLOBIN CONCENTRATION: 37.2 G/DL
  MEAN CORPUSCULAR VOLUME: 63.8 fL
  MONOCYTE: 1.67%
  NEUTROPHIL: 5.67%
  NUCLEATED RED BLOOD CELLS: 0 /100WBC
  PLATELET COUNT: 1224.33 x10E3/uL
  ALANINE AMINOTRANSFERASE: 45.33 u/L
  ALBUMIN: 4.27 G/DL
  ALKALINE PHOSPHATASE: 484.33 u/L
  ASPARTATE AMINOTRANSFERASE: 84.67 u/L
  BLOOD UREA NITROGEN: 13.67 mg/dL
  CARBON DIOXIDE: 28 mmol/L
  CHLORIDE: 103 MEQ/L
  CHOLESTEROL: 71 mg/dL
  CREATINE PHOSPHOKINASE: 192.33 u/L
  CREATININE: 0.18 mg/dL
  GLUCOSE: 148.33 mg/dL
  LACTATE DEHYDROGENASE: 120.67 u/L
  LIPASE: 9.33 u/L
  PHOSPHORUS: 12.27 mg/dL
  POTASSIUM: 6.28 MEQ/L
  SODIUM: 147.37 MEQ/L
  TOTAL BILIRUBIN: 0.2 mg/dL
